The species entered for this assay is Cavia porcellus. Kind of assay: Evaluated for antihistamine action using guinea pig ilea. The conditions noted are these: read-out: pA2 (converted). In kind it is functional.
Take `Cc1cc(OCCCCCCCCCCN2CCN(C(c3ccccc3)c3ccccc3)CC2)c(C)c(C)c1O`: the Kb was 407 nM.
With `Cc1cc(OCCCCN2CCN(C(c3ccccc3)c3ccccc3)CC2)c(C)c(C)c1O`, the Kb was 77.6 nM.
On to `Cc1cc(OCCCN2CCN(C(c3ccccc3)c3ccccc3)CC2)c(C)c(C)c1O`, for which the Kb is 74.1 nM.
The value for `Cc1cc(OCCN2CCN(C(c3ccccc3)c3ccccc3)CC2)c(C)c(C)c1O` was 117 nM; that for `Cc1cc(OCCCCCN2CCN(C(c3ccccc3)c3ccccc3)CC2)c(C)c(C)c1O` was 151 nM; that for `Cc1cc(OCCCCCCN2CCN(C(c3ccccc3)c3ccccc3)CC2)c(C)c(C)c1O` was 155 nM.
Regarding `Cc1cc(OCCCCCCCCN2CCN(C(c3ccccc3)c3ccccc3)CC2)c(C)c(C)c1O`, the Kb is 275 nM.
As for `O=c1[nH]c2ccccc2n1CCCN1CCN(C(c2ccccc2)c2ccccc2)CC1` [OXATOMIDE], the Kb was 45.7 nM.
